Test results taken from patent publication US20180209962A1, “SCREENING METHOD USING INDUCED NEURONS” (KYOTO UNIVERSITY, priority 2014, published 2018).

Assays:
Format in all cases: cell-based
mouse tauopathy iNs [1] = assay: Dot blot of tau oligomer in culture supernatant and cell extracts of mouse tauopathy iNs; conditions: added at day 5, 48 hours later, final concentration 25 μM
Protocol: (§1) FIG. 7 FIGS. 7A and 7B show results of adding AP-5 (final concentration: 25 μM) or CNQX (final concentration: 25 μM) to mouse tauopathy iNs or mouse normal iNs of day 5, preparing a culture supernatant and cell extracts 48 hours later, and analyzing the amounts of tau and a tau oligomer contained in the culture supernatant and the cell extracts by dot blot (FIG. 7A), and the results of quantifying their signals (FIG. 7B). In FIGS. 7C and 7D, AP-5 or CNQX was added to mouse tauopathy iNs of day 7, and a survival rate at day 10 (=the number of live neurons at day 10/the number of live neurons at day 7)×100) was indicated in a graph.
Cells were recovered from the culture system of iNs, suspended in TBS (Tris buffered saline) containing a protease inhibitor and a phosphatase inhibitor, and then ultrasonicated to homogenize the cells. The cell homogenates were centrifuged (13,000×g, 15 min), and the supernatant was recovered as cell extracts. The cell extracts from the iNs of each type were blotted at 1.2 μg protein/spot onto a nitrocellulose membrane (pore size: 0.45 μm, GE Healthcare Japan Corp.).
Also, a medium was recovered from the cell culture system and subjected to low-speed centrifugation (1,000 rpm, 3 min) to precipitate cellular debris. The obtained supernatant was recovered as a culture supernatant. A 500 μl aliquot of each culture supernatant was transferred to a tube with an ultrafiltration filter (Vivaspin, molecular weight cutoff: 10 kD, GE Healthcare Japan Corp.) and concentrated to 50 μl. 2 μl of each concentrated sample was blotted onto the nitrocellulose membrane.
The nitrocellulose membrane obtained by the method was treated with various tau antibodies according to a standard method, followed by detection (Western Lightning Plus-ECL, PerkinElmer, Inc.) and signal quantification (ImageQuant LAS4000, GE Healthcare Japan Corp.). Tau 12, Tau 5, and TOC1 antibodies were used a human tau-specific antibody, an antibody recognizing human tau and mouse tau, and a tau oligomer-specific antibody, respectively. In Examples of the present application, the TOC1 antibody (Non-Patent Document 13) used was provided by Dr. Nicholas Kanaan from Department of Translational Science and Molecular Medicine, College of Human Medicine, Michigan State University (USA).
(§2) AP-5 or CNQX was added to the culture system of mouse tauopathy iNs of day 5. 48 hours later, a culture supernatant and cell extracts were prepared therefrom, and the amount of a tau oligomer, the amount of human tau, and the total amount of tau were analyzed by dot blot (FIGS. 7A and 7B). Also, AP-5 or CNQX was added to the culture system of mouse tauopathy iNs of day 7. Three days later, a cell survival rate was calculated (FIGS. 7C and 7D).

[2] = test system: mouse tauopathy iNs and mouse normal iNs; assay: Action potential / excitatory postsynaptic current of iNs in the presence of glutamate receptor antagonists; conditions: for generation of excitatory postsynaptic current: mouse normal iNs, CNQX and AP-5 administered together; for generation of action potential: mouse tauopathy iNs and mouse normal iNs, AP-5 and CNQX present together
Description: FIGS. 1A and 1B show results of confirming, by immunostaining (FIG. 1A) or RT-PCR (FIG. 1B), that iPSCs prepared from a transgenic mouse harboring a P301S mutant human MAPT gene (tauopathy mouse), or its non-transgenic litter (normal mouse) express an undifferentiation marker (Esg1, Eras, Nanog, or SSEA1). In FIG. 1B, tauopathy mouse MEFs (MEF) were used as a negative control, and mouse embryonic stem cells (ESCs) were used as a positive control. […] The inserted drawings show enlarged diagrams of neurites.
Accordingly, these iNs were confirmed to be glutamatergic neurons.

human tauopathy iNs [3] = assay: Cell survival rate of human tauopathy iNs; conditions: added at day 16, survival at day 21
Description: FIGS. 10A and 10B show results of measuring change in intracellular calcium concentration between before and after electric stimulation by use of a calcium imaging method in human tauopathy iNs or human normal iNs of day 12 (FIG. 10A, n=6). The arrows shown in the abscissa represent time points at which the cells were given electric stimulation. The ordinate (ΔF/F) depicts change in the fluorescence intensity of a calcium indicator (Fluo-8/AM) after the stimulation with respect to its baseline fluorescence intensity. FIG. 10B is a graph on which the largest value of the ΔF/F was plotted. […] The upper left panel “pre” depicts the human tauopathy iNs of day 16 before the addition of the reagent.
Next, AP-5 or CNQX was added to the culture system of human tauopathy iNs of day 16, and a cell survival rate at day 21 was calculated. The treatment with any of these agents tended to elevate the cell survival rate.

mouse tauopathy iNs [4] = assay: Cell survival rate of mouse tauopathy iNs; conditions: added at day 7, survival at day 10
Protocol: as §1, §2

human tauopathy iNs [5] = assay: Sucrose density-gradient fractionation, localization of tau oligomer and lipid raft; conditions: tauopathy iNs treated with MbCD, then sucrose density-gradient fractionation, Western blot
Description: FIGS. 11A and 11B show results of preparing a culture supernatant and cell extracts from human tauopathy iNs or human normal iNs of day 14 and analyzing the amounts of human tau and a tau oligomer contained in the culture supernatant or the cell extracts by use of dot blot (FIG. 11A), and graphs on which their signals were quantified (FIG. 11B).
Lipid raft was biochemically isolated from human tauopathy iNs or human normal iNs and analyzed for its colocalization with a tau oligomer. Specifically, iNs were homogenized using a 29-gauge needle in a buffer containing 1% Lubrol and a protease inhibitor, and the cell homogenates were adjusted to a sucrose concentration of 40%. Then, a 0.7 ml aliquot thereof was fractionated by the sucrose density-gradient centrifugation method. The sucrose density gradient used was steps of 30% (1.4 ml), 27.5% (0.7 ml), 24% (1.4 ml), and 3% […] (5-ml tube), and the centrifugation conditions involved 50,000 rpm, 4° C., and 16 hours using Optima-MAX XP1 (Beckman Coulter, Inc.). After the centrifugation, a 0.7 ml aliquot was recovered from the upper layer to obtain 7 fractions (F1 to F7).
The lipid raft (GM1 ganglioside) was recovered into F2 and F3 of the human normal iNs and contained in F2 and F3 as well as in a small amount in F4 of human tauopathy iNs. The tau oligomer in the tauopathy iNs was contained mainly in F3 and also contained in F2 and F4. […]

human normal iNs [6] = assay: Spontaneous firing rate using a MEA system; conditions: final concentration 1 μg/ml
Protocol: iPSCs for neural differentiation were inoculated to a culture dish for the exclusive use of MEA coated with poly-L-lysine and Matrigel, and induced to differentiate into neurons according to the [Approach 2]. At day 8 (mouse iNs) or day 12 (human iNs), extracellular electrical recordings were measured using a multielectrode array system (MEA60, Multi Channel Systems MCS GmbH). Data was obtained using MC_Rack software (extracellular electrical recordings). Offline Sorter ver. 3 (Plexon Inc.) was used in spike analysis. The spikes were sorted and then analyzed using Neuroexplorer software (Nex Technologies, LLC).
A culture supernatant of human tauopathy iNs or human normal iNs of days 12 to 14 was added to human normal iNs of day 20, and a spontaneous firing rate was measured using the MEA system of the [Approach 6]. […] By contrast, in the human normal iNs supplemented with the culture supernatant of the human normal iNs, no increase in spontaneous firing rate occurred substantially (FIGS. 12E and 12F).
The P301S tau monomer or the P301S tau oligomer was added (final concentration: 1 μg/ml) to the culture system of human normal iNs, and a spontaneous firing rate was measured using a MEA system ([Approach 6]). […]

human normal iNs [7] = assay: Cell survival rate of human normal iNs after addition of P301S tau monomer or oligomer; conditions: for cell survival rate: two days later
Protocol: FIGS. 13D and 13F show results of adding the tau monomer or the tau oligomer of FIG. 13A to a medium of human normal iNs of day 20 and measuring a spontaneous firing rate using a MEA system (FIG. 13D). The arrows represent the timing at which the tau monomer or the tau oligomer was added. FIG. 13E is a graph indicating the ratio of spike number between before and after the addition.
P301S mutant human tau produced as a recombinant protein was oligomerized by incubation in the presence of heparin. Specifically, 0.5 mg/ml tau protein was incubated at 37° C. for 16 hours in a 10 mM HEPES buffer (pH 7.4) containing 10 μM heparin (Sigma-Aldrich Co. LLC) and 100 mM NaCl (Sahara N. and Takashima A, EMBO J., 26: 5143-52, 2007). Then, the solution was treated at 70° C. for 15 minutes and then subjected to SDS-PAGE and silver staining. As is evident, the tau before the incubation in the presence of the heparin was mostly monomeric and dimeric, whereas the tau after the incubation included a large number of trimeric or larger associates (i.e., tau oligomers). Hereinafter, the tau before the incubation in the presence of the heparin is referred to as a “P301S tau monomer”, and the tau after the incubation is referred to as a “P301S tau oligomer”.
The P301S tau monomer or the P301S tau oligomer was added to the culture system of human normal iNs, followed by cell survival rate analysis two days later.

Compound	amount of a tau oligomer contained in the cell extracts (mouse tauopathy iNs [1])	amount of a tau oligomer contained in the culture supernatant (mouse tauopathy iNs [1])	generation of excitatory postsynaptic current [2]	generation of action potential [2]	cell survival rate (human tauopathy iNs [3]; 25 μM)	cell survival rate (mouse tauopathy iNs [4])	spontaneous firing rate (human normal iNs [6])	cell survival rate (human normal iNs [7]; 1 μg/ml)	other results
N[C@H](CCCP(=O)(O)O)C(=O)O [AP-5, D-(−)-2-amino-5-phosphononpentanoic acid]	no significant change	approximately 50 % of the negative control	suppressed	did not generate action potential	significantly elevated	approximately 2 times the negative control			cell survival rate (human tauopathy iNs [3]; 12.5 μM): significantly elevated
N#Cc1cc2c(cc1[N+](=O)[O-])=NC(=O)C(=O)N=2 [CNQX, 6-cyano-7-nitroquinoxaline-2,3-dione]	approximately 70 % of the negative control	approximately 50 % of the negative control	suppressed	did not generate action potential	significantly elevated	approximately 2 times the negative control			
Methyl-β-cyclodextrin [MbCD]									recovery of tau oligomer into lipid raft fractions (human tauopathy iNs [5]): not recovered into F2 to F4
P301S tau monomer: recombinant P301S mutant human tau before the incubation with heparin, mostly monomeric and dimeric							approximately 120 % of that before the addition	not changed	
P301S tau oligomer: recombinant P301S mutant human tau after incubation in the presence of heparin; trimeric or larger associates							approximately 290 % of that before the addition	significantly decreased	cell survival rate (human normal iNs [7]; 0.1 μg/ml): significantly decreased; induction of cell death (human normal iNs [7]; 100 ng/ml): tended to induce cell death, albeit not significant
